# Measurements published in patent US4272437A, “Antibacterial agents, and 4-thio azetidinone intermediates” (priority 1979, dated 1981).
# Like-named read-outs stand apart in the source and are kept apart here.
# Tests used:
# Ser. marcescens A-20019 = assay: MIC, tube dilution, Serratia marcescens A20019; assay type: cell-based; conditions: Serratia marcescens, A20019, Serratia marcescens A20019; overnight 37° C.; read-out: Minimum Inhibitory Concentration (M.I.C.)
# Source text: (§1) Representative compounds of the present invention were subjected to in vitro antibiotic screening against a variety of microorganisms.
# Pr. morganii A-15153 = assay: MIC, tube dilution, Proteus morganii A15153; assay type: cell-based; conditions: Morganella morganii, A15153, Proteus morganii A15153; overnight 37° C.; read-out: Minimum Inhibitory Concentration (M.I.C.)
# Source text: as §1
# Pr. mirabilis A-9900 = assay: MIC, tube dilution, Proteus mirabilis A9900; assay type: cell-based; conditions: Proteus mirabilis, A9900, Proteus mirabilis A9900; overnight 37° C.; read-out: Minimum Inhibitory Concentration (M.I.C.)
# Source text: as §1
# Ps. aeruginosa A-9843A = assay: MIC, tube dilution, Pseudomonas aeruginosa A9843A; assay type: cell-based; conditions: Pseudomonas aeruginosa, A9843A, read-out: Minimum Inhibitory Concentration (M.I.C.), Pseudomonas aeruginosa A9843A; overnight 37° C.
# Source text: as §1
# Str. faecalis A-20688 = assay: MIC, tube dilution, Streptococcus faecalis A20688; assay type: cell-based; conditions: Enterococcus faecalis, A20688, Str. faecalis A20688; overnight 37° C.; read-out: Minimum Inhibitory Concentration (M.I.C.)
# Source text: as §1
# Ps. aeruginosa A-21213 = assay: MIC, tube dilution, Pseudomonas aeruginosa A21213; assay type: cell-based; conditions: overnight 37° C., read-out: Minimum Inhibitory Concentration (M.I.C.)
# Source text: as §1
# [1] = tested on: Staph. aureus (Pen-Res) A-9606; assay: MIC, tube dilution, Staphylococcus aureus A9606 (Pen-Res); assay type: cell-based; conditions: Staphylococcus aureus, overnight 37° C.
# Source text: as §1
# E. coli A-15119 = assay: MIC, tube dilution, Escherichia coli A15119; assay type: cell-based; conditions: Escherichia coli, A15119, E. coli A15119; overnight 37° C.; read-out: Minimum Inhibitory Concentration (M.I.C.)
# Source text: as §1
# Ent. cloacae A-9659 = assay: MIC, tube dilution, Enterobacter cloacae A9659; assay type: cell-based; conditions: Enterobacter cloacae, A9659, Enterobacter cloacae A9659; overnight 37° C.; read-out: Minimum Inhibitory Concentration (M.I.C.)
# Source text: as §1
# Staph. aureus A-9537 = assay: MIC, tube dilution, Staphylococcus aureus A9537; assay type: cell-based; conditions: Staphylococcus aureus, A9537, Staph. aureus A9537; overnight 37° C., Nutrient Broth; read-out: Minimum Inhibitory Concentration (M.I.C.)
# Source text: as §1
# [2] = tested on: Klebsiella species A20468; assay: MIC, tube dilution, Klebsiella species A20468; assay type: cell-based; conditions: Klebsiella species (K. pneumoniae) A20468; overnight 37° C.; read-out: Minimum Inhibitory Concentration (M.I.C.)
# Source text: as §1
# Str. pneumoniae A-9585 = assay: MIC, tube dilution, Streptococcus pneumoniae A9585; assay type: cell-based; conditions: Streptococcus pneumoniae, A9585, Str. pneumoniae A9585; overnight 37° C., Nutrient Broth; read-out: Minimum Inhibitory Concentration (M.I.C.)
# Source text: as §1
# Str. pyogenes A-9604 = assay: MIC, tube dilution, Streptococcus pyogenes A9604; assay type: cell-based; conditions: Streptococcus pyogenes, A9604, Str. pyogenes A9604; overnight 37° C., Nutrient Broth; read-out: Minimum Inhibitory Concentration (M.I.C.)
# Source text: as §1
# Pr. vulgaris A-9716 = assay: MIC, tube dilution, Proteus vulgaris / Proteus mirabilis A9716; assay type: cell-based, Proteus vulgaris (name changed to Proteus mirabilis); conditions: Proteus vulgaris, overnight 37° C.
# Source text: as §1
# K. pneumoniae A-15130 = assay: MIC, tube dilution, Klebsiella pneumoniae A15130; assay type: cell-based; conditions: Klebsiella pneumoniae, A15130, K. pneumoniae A15130; overnight 37° C.; read-out: Minimum Inhibitory Concentration (M.I.C.)
# Source text: as §1
# E. coli A-20341-1 = assay: MIC, tube dilution, Escherichia coli A20341-1; assay type: cell-based
# Source text: as §1
# Proteus rettgeri A21203 = assay: MIC, tube dilution, Proteus rettgeri A21203; assay type: cell-based; conditions: Providencia rettgeri, overnight 37° C., read-out: Minimum Inhibitory Concentration (M.I.C.)
# Source text: as §1
# Ent. cloacae A-9656 = assay: MIC, tube dilution, Enterobacter cloacae A9656; assay type: cell-based; conditions: overnight 37° C., read-out: Minimum Inhibitory Concentration (M.I.C.)
# Source text: as §1
# [3] = tested on: Staph. aureus A-9537 and 50% serum; assay: MIC, tube dilution, Staph. aureus A9537 + 50% serum; assay type: cell-based, Staphylococcus aureus; conditions: Staphylococcus aureus, overnight 37° C., read-out: Minimum Inhibitory Concentration (M.I.C.)
# Source text: as §1
# [4] = tested on: Staph. aureus (Meth-Res) A-15097; assay: MIC, tube dilution, Staphylococcus aureus A15097 (Meth-Res); assay type: cell-based; conditions: Staphylococcus aureus, overnight 37° C.
# Source text: as §1
# [5] = read-out: Minimum Inhibitory Concentration (M.I.C.), Staph. aureus A9606 (Pen-Res)
# [6] = A9716, read-out: Minimum Inhibitory Concentration (M.I.C.), Proteus vulgaris / Proteus mirabilis A9716
# [7] = Escherichia coli, A203411; E. coli A20341-1; overnight 37° C.; read-out: Minimum Inhibitory Concentration (M.I.C.)
# [8] = read-out: Minimum Inhibitory Concentration (M.I.C.), Staph. aureus A15097 (Meth-Res)
# [9] = Staph. aureus A9606 (Pen-Res), read-out: Minimum Inhibitory Concentration (M.I.C.)
# [10] = A9716, Proteus vulgaris / Proteus mirabilis A9716, read-out: Minimum Inhibitory Concentration (M.I.C.)
# [11] = A21203, Proteus rettgeri A21203
# [12] = Enterobacter cloacae, A9656, Enterobacter cloacae A9656
SMILES,MIC (Ser. marcescens A-20019),MIC (Pr. morganii A-15153),MIC (Pr. mirabilis A-9900),MIC (Ps. aeruginosa A-9843A),MIC (Str. faecalis A-20688),MIC (Ps. aeruginosa A-21213; Pseudomonas aeruginosa A21213),"MIC [1, 5]",MIC (E. coli A-15119),MIC (Ent. cloacae A-9659),MIC (Staph. aureus A-9537),MIC [2],MIC (Str. pneumoniae A-9585),MIC (Str. pyogenes A-9604),MIC (K. pneumoniae A-15130),MIC (E. coli A-20341-1; [7]),MIC (Proteus rettgeri A21203; Proteus rettgeri A21203),MIC (Ent. cloacae A-9656; Enterobacter cloacae A9656),MIC [3],"MIC [4, 8]",MIC (Pr. vulgaris A-9716; [10]),other results
"O=C(O)C1=C(C(F)(F)F)SC2CC(=O)N12 (stereo not drawn) [Example 17, Sodium 2-Trifluoromethylpenem-3-carboxylate]",> 125 µg/mL,> 125 µg/mL,> 125 µg/mL,125 µg/mL,> 125 µg/mL,125 µg/mL,> 125 µg/mL,125 µg/mL,> 125 µg/mL,> 8 µg/mL,> 125 µg/mL,> 8 µg/mL,> 8 µg/mL,> 125 µg/mL,> 125 µg/mL,125 µg/mL,> 125 µg/mL,> 63 µg/mL,> 125 µg/mL,–,MIC (Pr. vulgaris A-9716; [6]): > 125 µg/mL
"O=C(O)C1=C(Cc2cscn2)SC2CC(=O)N12 (stereo not drawn) [Example 18, 2-(4'-Thiazolyl)methylpenem-3-carboxylic Acid]",> 125 µg/mL,125 µg/mL,> 125 µg/mL,125 µg/mL,> 125 µg/mL,125 µg/mL,> 125 µg/mL,> 125 µg/mL,> 125 µg/mL,125 µg/mL,125 µg/mL,125 µg/mL,> 125 µg/mL,> 125 µg/mL,> 125 µg/mL,125 µg/mL,> 125 µg/mL,> 63 µg/mL,> 125 µg/mL,–,MIC (Pr. vulgaris A-9716; [6]): 125 µg/mL
"O=C(O)C1=CSC2CC(=O)N12 (stereo not drawn) [Example 19, Penem-3-carboxylic Acid]",16 µg/mL,16 µg/mL,16 µg/mL,63 µg/mL,125 µg/mL,–,–,8 µg/mL,16 µg/mL,4 µg/mL,> 125 µg/mL,0.5 µg/mL,2 µg/mL,16 µg/mL,–,–,–,63 µg/mL,–,16 µg/mL,"MIC (Ps. aeruginosa A-21213; Pseudomonas aeruginosa, A21213, Pseudomonas aeruginosa A21213): 125 µg/mL; MIC [1, 9]: 8 µg/mL; MIC (E. coli A-20341-1; Escherichia coli, A203411, E. coli A20341-1; overnight 37° C.; read-out: Minimum Inhibitory Concentration (M.I.C.)): 16 µg/mL; MIC (Proteus rettgeri A21203; [11]): 16 µg/mL; MIC (Ent. cloacae A-9656; [12]): 16 µg/mL; MIC ([4]; Staph. aureus A15097 (Meth-Res), read-out: Minimum Inhibitory Concentration (M.I.C.)): 63 µg/mL"
Cc1cc(CC2=C(C(=O)O)N3C(=O)CC3S2)on1 (stereo not drawn) [Example 20],> 125 µg/mL,125 µg/mL,> 125 µg/mL,125 µg/mL,> 125 µg/mL,125 µg/mL,> 125 µg/mL,> 125 µg/mL,> 125 µg/mL,> 125 µg/mL,> 125 µg/mL,8 µg/mL,63 µg/mL,> 125 µg/mL,> 125 µg/mL,125 µg/mL,> 125 µg/mL,> 63 µg/mL,> 125 µg/mL,–,MIC (Pr. vulgaris A-9716; [6]): 125 µg/mL
"O=C(O)C1=C(C2CCC2)SC2CC(=O)N12 (stereo not drawn) [Example 21, 2-Cyclobutylpenem-3-carboxylic Acid]",16 µg/mL,16 µg/mL,2 µg/mL,125 µg/mL,16 µg/mL,125 µg/mL,–,4 µg/mL,16 µg/mL,0.13 µg/mL,> 125 µg/mL,0.13 µg/mL,1 µg/mL,16 µg/mL,125 µg/mL,–,–,> 63 µg/mL,> 125 µg/mL,2 µg/mL,"MIC [1, 9]: 8 µg/mL; MIC (Proteus rettgeri A21203; [11]): 4 µg/mL; MIC (Ent. cloacae A-9656; [12]): 32 µg/mL"
"CON=C(C)CC1=C(C(=O)O)N2C(=O)CC2S1 (stereo not drawn) [Example 44, Sodium 2-(Acetonylmethyl oxime)-penem-3-carboxylate]",> 125 µg/mL,125 µg/mL,63 µg/mL,125 µg/mL,125 µg/mL,125 µg/mL,> 125 µg/mL,63 µg/mL,> 125 µg/mL,32 µg/mL,> 125 µg/mL,2 µg/mL,16 µg/mL,> 125 µg/mL,> 125 µg/mL,125 µg/mL,> 125 µg/mL,> 63 µg/mL,> 125 µg/mL,63 µg/mL,–
"Nc1ccccc1CC1=C(C(=O)O)N2C(=O)CC2S1 (stereo not drawn) [Example 45, Sodium 2-(2'-Aminophenyl)methylpenem-3-carboxylate]",125 µg/mL,125 µg/mL,32 µg/mL,125 µg/mL,125 µg/mL,125 µg/mL,–,125 µg/mL,125 µg/mL,1 µg/mL,125 µg/mL,0.5 µg/mL,1 µg/mL,125 µg/mL,125 µg/mL,–,125 µg/mL,63 µg/mL,125 µg/mL,63 µg/mL,"MIC [1, 9]: 4 µg/mL; MIC (Proteus rettgeri A21203; [11]): 63 µg/mL"
"O=C([O-])C1=C(Cc2ccco2)S[C@@H]2CC(=O)N12.[Na+] [Preparation 18, Sodium 2-(2-Furylmethyl)penem-3-carboxylate]",32 µg/mL,8 µg/mL,2 µg/mL,> 125 µg/mL,63 µg/mL,> 125 µg/mL,1 µg/mL,2 µg/mL,16 µg/mL,0.5 µg/mL,> 125 µg/mL,0.06 µg/mL,0.25 µg/mL,32 µg/mL,> 125 µg/mL,4 µg/mL,32 µg/mL,> 63 µg/mL,16 µg/mL,–,MIC (Pr. vulgaris A-9716; [6]): 2 µg/mL
"O=C(O)C1=C(Cc2c[nH]c3ccccc23)SC2CC(=O)N12 (stereo not drawn) [Preparation 19, 2-(3'-Indole)methylpenem-3-carboxylic Acid]",63 µg/mL,2 µg/mL,1 µg/mL,> 125 µg/mL,125 µg/mL,> 125 µg/mL,–,8 µg/mL,63 µg/mL,0.03 µg/mL,> 125 µg/mL,0.03 µg/mL,0.06 µg/mL,32 µg/mL,> 125 µg/mL,–,–,32 µg/mL,125 µg/mL,2 µg/mL,"MIC [1, 9]: 0.5 µg/mL; MIC (Proteus rettgeri A21203; [11]): 2 µg/mL; MIC (Ent. cloacae A-9656; [12]): 63 µg/mL"
